# Key:
# in vivo [1] = settings: beagle, dog, iv, 10 mg
# Description: (§1) Fasted pentagastrin-pretreated male beagle dogs (n=4) were dosed by oral route followed by gavage flush with water to facilitate gastro-intestinal dissolution. Blood samples were taken at predetermined times over 72 hours post-dose to measure comparative pharmacokinetics between the formulations. Due to the long half-life these were conducted in a parallel group design in different sets of dogs.
# in vivo [2] = settings: cynomolgus monkey, iv
# Description: (§2) Four coated tablets were added in each #00 gray opaque hard gelatin capsule for the cyno PK study. Each cyno monkey was dosed with 2 capsules (8 coated tablets).
# (§3) Fasted male cyno monkeys (n=3) were dosed by oral route followed by gavage flush with water to facilitate gastro-intestinal dissolution. Blood samples were taken at predetermined times over 72 hours post-dose to measure comparative pharmacokinetics between the formulations. Due to the long half-life these were conducted in a parallel group design in different sets of cyno monkeys.
# [3] = rat, in vivo
# Description: The study was run as a two-treatment, two-segment, parallel study in anesthetized, fasted, male Sprague Dawley rats (rat weight: ˜300 g) with 4 rats per group.
# For duodenal absorptional testing, the rats were ligated at pylorus (proximal) and the subject formulation was injected directly into duodenum 5 cm past pylorus ligation (about 15 cm from the pylorus) and the distal part of the segment was ligated to contain drug in intestinal segment.
# Samples of the dosed solution from gastric and duodenal segments were extracted at 60 min to measure remaining drug concentrations.
# [4] = cynomolgus monkey, in vivo, iv, 0.1 mg/kg
# Description: as §2, §3
# [5] = Oral absorption of prepared formulations of Compound (II) in dogs (Example 10, 70 mg); settings: beagle, dog, blood, iv, 10 mg
# Description: as §1
# in vivo [6] = settings: beagle, dog, iv, 10 mg; remark: listed apart in the source
# Description: as §1
# [7] = Oral absorption of formulated tablets of Compound (II) in cyno monkeys (PK); settings: cynomolgus monkey, iv, 0.1 mg/kg
# Description: as §2, §3
# in vivo [8] = settings: dog, iv, 10 mg
# Description: Dogs were administered formulations as follows: • 2×50 mg tablets with 10% API (Example 10, 88.6 mg dose after API potency correction) • 10×10-mg tablets with 10% API (Example 11, 88.6 mg dose after API potency correction) • 5×10 mg tablets with 10% API (Example 11, 44.3 mg dose after API potency correction) and 5 placebo tablets with enhancer only. • 10×5 mg tablets with 5% API (44.3 mg dose after API potency correction) • 40×2.5 mg tablets with 10% API (Example X, 100 mg dose after potency correction)
smiles,measurement,setting,value
CCCC[C@H]1C(=O)N(C)[C@@H](CCCC)C(=O)N[C@@H](CC(C)C)C(=O)N[C@H](C(=O)NCC(=O)N[C@@H](Cc2cn(CCOCCOCCCOCCCOCCOCCOCCOCCOCCOCCOCCOCCNC(=O)CC[C@H](NC(=O)CCCCCCCCCCCCCCCCC(=O)O)C(=O)O)nn2)C(=O)O)CSCC(=O)N[C@@H](Cc2ccc(O)cc2)C(=O)N(C)[C@@H](C)C(=O)N[C@@H](CC(N)=O)C(=O)N2CCC[C@H]2C(=O)N[C@@H](CN)C(=O)N[C@@H](CC(C)C)C(=O)N2C[C@H](O)C[C@H]2C(=O)N[C@@H](Cc2c[nH]c3ccccc23)C(=O)N[C@@H](CCN)C(=O)N[C@@H](Cc2cn(CC(=O)O)c3ccccc23)C(=O)N1C [Compound (II)],AUC(0-inf),in vivo [1],402 µM·h
same,Cmax,in vivo [1],8.55 µM
same,Tmax,in vivo [1],12 min
same,AUC(0-t),in vivo [1]; AUC0-24 h (nM · h) Mean,126 µM·h
same,AUC(0-t),in vivo [1]; AUC0-t (nM · h)* Mean,322 µM·h
same,Tmax,in vivo [2]; 0.1 mg/kg,18 min
same,level at time molar at 24 h,in vivo [2]; 0.1 mpk,0.544 µM
same,"systemic absorption, intestinal compartment compared to the gastric compartment",[3],good systemic absorption
same,BA (%) using AUCInf Mean,[4],100.00%
same,AUC(0-inf),[5],402 µM·h
same,Cmax,[5],8.55 µM
same,Tmax,in vivo [6],12 min
same,AUC(0-inf),[7]; blood,52 µM·h
same,AUC(0-t),[7]; in vivo,47.6 µM·h
same,Cmax,[7]; in vivo,0.798 µM
same,Cmax,in vivo [8],25500 ng/mL
same,Tmax,in vivo [8],12 min
same,AUC(0-t),in vivo [8]; AUC0-24 h (ng · h/mL) Mean,376 µg·h/mL
same,AUC(0-t),in vivo [8]; AUC0-72 h (ng · h/mL) Mean,833 µg·h/mL

# From patent US20250213548A1, “PHARMACEUTICAL COMPOSITIONS FOR IMPROVING ORAL BIOAVAILABILITY” (Bristol-Myers Squibb Company, priority 2022, published 2025)
